Test results reported in patent US20100284992A1 (priority 2006, published 2010).
Where a SMILES comes first, the peptide text is derived from it. The star is where a group is joined. Cbz = O=C(OCc1ccccc1)*; CH2F = FC*

Experiments:
[1] = system: HUVEC; format: cell-based, Homo sapiens
[2] = target: Pseudomonas aeruginosa hemolytic phospholipase C PlcHR2, wild type (Pseudomonas aeruginosa, UniProt P06200); format: biochemical
Chain of Pseudomonas aeruginosa hemolytic phospholipase C PlcHR2, wild type (P06200 39-730 limits assumed): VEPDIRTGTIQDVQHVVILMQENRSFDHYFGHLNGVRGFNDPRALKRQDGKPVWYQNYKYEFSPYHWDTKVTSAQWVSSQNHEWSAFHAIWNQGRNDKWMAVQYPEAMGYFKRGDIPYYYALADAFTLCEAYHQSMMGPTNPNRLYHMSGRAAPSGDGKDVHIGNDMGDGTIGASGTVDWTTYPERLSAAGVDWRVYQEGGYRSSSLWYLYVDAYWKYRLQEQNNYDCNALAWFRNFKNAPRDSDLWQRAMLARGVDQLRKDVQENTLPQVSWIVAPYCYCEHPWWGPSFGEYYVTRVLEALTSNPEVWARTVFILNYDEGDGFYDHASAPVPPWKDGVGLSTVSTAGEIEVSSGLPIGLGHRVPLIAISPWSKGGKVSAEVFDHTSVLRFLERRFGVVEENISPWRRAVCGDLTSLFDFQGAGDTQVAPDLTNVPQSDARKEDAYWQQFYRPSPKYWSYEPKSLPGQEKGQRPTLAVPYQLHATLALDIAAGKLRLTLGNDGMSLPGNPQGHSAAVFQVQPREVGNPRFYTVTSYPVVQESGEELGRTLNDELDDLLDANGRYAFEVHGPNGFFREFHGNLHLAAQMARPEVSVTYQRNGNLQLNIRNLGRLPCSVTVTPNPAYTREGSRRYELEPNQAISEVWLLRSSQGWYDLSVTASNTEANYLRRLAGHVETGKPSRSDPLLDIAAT

| SMILES | reduction of PlcHR2-induced LDH release [1] | Km ([2]; pH 7.2) [mM] | Vmax ([2]; pH 7.2) [µmol/min/mg] | kcat ([2]; pH 7.2, 37° C.) [s⁻¹] |
| --- | --- | --- | --- | --- |
| COC(=O)C[C@H](NC(=O)[C@H](C)NC(=O)[C@@H](NC(=O)OCc1ccccc1)C(C)C)C(=O)CF [Z-VAD-FMK] (Cbz-Val-Ala-Asp(OMe)-CH2F) | reduced the amount of LDH release |  |  |  |
| C[N+](C)(C)CCOP(=O)([O-])Oc1ccc([N+](=O)[O-])cc1 [NPPC, ρ-nitrophenyl-phosphorylcholine] |  | 19 | 147 ± 6 | 192 |
